Source: patent US20240208992A1, “MACROCYCLES AS CFTR MODULATORS” (Idorsia Pharmaceuticals Ltd, priority 2021, published 2024)

Biological target: human F508del-CFTR (Homo sapiens, UniProt P13569, DEL508-508)
Experiment: F508del-CFTR cell surface expression (corrector activity), DiscoveRx ß-galactosidase complementation chemiluminescence assay in recombinant U2OS cell line;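 note: U2OS cells co-expressing ProLink-tagged F508del-CFTR and a membrane-anchored enzyme acceptor, where more surface CFTR restores β-galactosidase activity measured by chemiluminescence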
Details: for EC50: EC50, F508del-CFTR cell surface expression, U2OS cells, 16h compound incubation, geomean values; for Emax: U2OS, in relation to Emax of corrector lumacaftor (=100%), arithmetic mean values

human F508del-CFTR, sequence (P13569 with tags, fused parts or gaps DEL508-508): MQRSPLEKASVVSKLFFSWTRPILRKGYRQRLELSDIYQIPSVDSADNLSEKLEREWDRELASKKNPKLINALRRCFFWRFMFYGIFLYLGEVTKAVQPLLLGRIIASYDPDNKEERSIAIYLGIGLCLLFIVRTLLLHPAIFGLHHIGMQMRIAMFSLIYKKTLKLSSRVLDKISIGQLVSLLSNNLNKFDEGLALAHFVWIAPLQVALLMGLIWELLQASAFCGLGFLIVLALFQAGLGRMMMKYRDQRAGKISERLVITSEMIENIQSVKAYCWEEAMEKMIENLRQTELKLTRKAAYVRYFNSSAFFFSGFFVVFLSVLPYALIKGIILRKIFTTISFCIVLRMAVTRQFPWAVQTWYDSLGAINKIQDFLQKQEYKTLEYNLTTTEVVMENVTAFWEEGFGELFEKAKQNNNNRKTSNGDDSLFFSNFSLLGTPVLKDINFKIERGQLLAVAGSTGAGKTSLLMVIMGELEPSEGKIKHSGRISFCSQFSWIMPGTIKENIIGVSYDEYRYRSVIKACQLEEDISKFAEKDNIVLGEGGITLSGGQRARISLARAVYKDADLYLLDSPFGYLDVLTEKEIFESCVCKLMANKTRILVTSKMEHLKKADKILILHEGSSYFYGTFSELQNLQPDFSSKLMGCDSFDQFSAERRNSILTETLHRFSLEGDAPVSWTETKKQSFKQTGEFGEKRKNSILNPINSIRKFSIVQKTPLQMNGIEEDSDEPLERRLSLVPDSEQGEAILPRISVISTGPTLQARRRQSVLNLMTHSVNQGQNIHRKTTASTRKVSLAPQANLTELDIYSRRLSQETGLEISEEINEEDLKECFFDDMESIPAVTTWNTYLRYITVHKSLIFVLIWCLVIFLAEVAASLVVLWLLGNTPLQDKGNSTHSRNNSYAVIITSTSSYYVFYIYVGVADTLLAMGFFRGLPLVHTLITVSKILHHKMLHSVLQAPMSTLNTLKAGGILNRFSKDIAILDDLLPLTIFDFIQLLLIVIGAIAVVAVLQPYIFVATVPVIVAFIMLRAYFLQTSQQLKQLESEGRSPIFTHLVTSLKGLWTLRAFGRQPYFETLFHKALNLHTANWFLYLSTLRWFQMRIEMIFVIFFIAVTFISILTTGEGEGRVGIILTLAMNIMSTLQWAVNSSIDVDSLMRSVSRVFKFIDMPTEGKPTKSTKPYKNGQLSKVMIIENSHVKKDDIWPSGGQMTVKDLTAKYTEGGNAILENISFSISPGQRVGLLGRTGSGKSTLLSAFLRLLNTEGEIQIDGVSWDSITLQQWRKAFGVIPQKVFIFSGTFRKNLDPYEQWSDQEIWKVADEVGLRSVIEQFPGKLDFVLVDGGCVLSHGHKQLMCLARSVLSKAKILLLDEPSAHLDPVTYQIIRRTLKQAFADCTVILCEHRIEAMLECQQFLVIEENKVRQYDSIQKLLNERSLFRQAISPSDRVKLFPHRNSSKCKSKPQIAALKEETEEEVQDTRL

SMILES | EC50 | Emax
COc1nccc2c1C(=O)N[C@H](C(=O)NCCc1noc(C3CC3)n1)CC(=O)N(C)[C@@H](CC(C)C)C(=O)N(C)[C@H](c1ccccc1)C(=O)N[C@H](Cc1ccccc1)CO2 [Example 681, (3R,6R,9S,13S)-3-benzyl-N-(2-(5-cyclopropyl-1,2,4-oxadiazol-3-yl)ethyl)-9-isobutyl-16-methoxy-7,10-dimethyl-5,8,11,15-tetraoxo-6-phenyl-2,3,4,5,6,7,8,9,10,11,12,13,14,15-tetradecahydropyrido[3,4-p][1]oxa[4,7,10,14]tetraazacycloheptadecine-13-carboxamide] | 447 nM | 313%
COc1nccc2c1C(=O)N[C@H](C(=O)NCCc1cc(C3CC3)on1)CC(=O)N(C)[C@@H](CC(C)C)C(=O)N(C)[C@H](CC1CCC(F)(F)CC1)C(=O)N[C@H](Cc1ccccc1)CO2 [Example 682, (3R,6R,9S,13S)-3-benzyl-N-(2-(5-cyclopropylisoxazol-3-yl)ethyl)-6-((4,4-difluorocyclohexyl)methyl)-9-isobutyl-16-methoxy-7,10-dimethyl-5,8,11,15-tetraoxo-2,3,4,5,6,7,8,9,10,11,12,13,14,15-tetradecahydropyrido[3,4-p][1]oxa[4,7,10,14]tetraazacycloheptadecine-13-carboxamide] | 110 nM | 351%
CC(C)C[C@H]1C(=O)N(C)CC(=O)N[C@H](Cc2ccccc2)COc2ccccc2C(=O)N[C@H](C(=O)NCCc2ccc3c(c2)OCO3)CC(=O)N1C [Example 687, (3R,9S,13S)-N-(2-(benzo[d][1,3]dioxol-5-yl)ethyl)-3-benzyl-9-isobutyl-7,10-dimethyl-5,8,11,15-tetraoxo-2,3,4,5,6,7,8,9,10,11,12,13,14,15-tetradecahydrobenzo[p][1]oxa[4,7,10,14]tetraazacycloheptadecine-13-carboxamide] | 794 nM | 107%
CC(C)C[C@H]1C(=O)N(C)CC(=O)N[C@H](Cc2ccccc2)COc2ccccc2C(=O)N[C@H](C(=O)NCCc2ccc3c(c2)OCCO3)CC(=O)N1C [Example 688, (3R,9S,13S)-3-benzyl-N-(2-(2,3-dihydrobenzo[b][1,4]dioxin-6-yl)ethyl)-9-isobutyl-7,10-dimethyl-5,8,11,15-tetraoxo-2,3,4,5,6,7,8,9,10,11,12,13,14,15-tetradecahydrobenzo[p][1]oxa[4,7,10,14]tetraazacycloheptadecine-13-carboxamide] | 458 nM | 104%
CC(C)C[C@H]1C(=O)N(C)C2(CCC2)C(=O)N[C@H](Cc2ccccc2)COc2cnc3ccc(F)cc3c2C(=O)N[C@H](C(=O)NCCc2cc(C3CC3)no2)CC(=O)N1C [Example 689, (3'S,7'S,13′R)-13′-Benzyl-N-(2-(3-cyclopropylisoxazol-5-yl)ethyl)-20′-fluoro-7′-isobutyl-6′,9′-dimethyl-1′,5′,8′,11′-tetraoxo-2′,3′,4′,5′,6′,7′,8′,9′,11′,12′,13′,14′-dodecahydro-1′H-spiro[cyclobutane-1,10′-[1]oxa[4,7,10,14]tetraazacycloheptadecino[17,16-c]quinoline]-3′-carboxamide] | 245 nM | 390%
CC(C)C[C@H]1C(=O)N(C)C2(CCC2)C(=O)N[C@H](Cc2ccccc2)COc2cnc3ccc(F)cc3c2C(=O)N[C@H](C(=O)NCCc2noc(C3CC3)n2)CC(=O)N1C [Example 691, (3′S,7′S,13′R)-13′-benzyl-N-(2-(5-cyclopropyl-1,2,4-oxadiazol-3-yl)ethyl)-20′-fluoro-7′-isobutyl-6′,9′-dimethyl-1′,5′,8′,11′-tetraoxo-2′,3′,4′,5′,6′,7′,8′,9′,11′,12′,13′,14′-dodecahydro-1′H-spiro[cyclobutane-1,10′-[1]oxa[4,7,10,14]tetraazacycloheptadecino[17,16-c]quinoline]-3′-carboxamide] | 201 nM | 364%

Now from value to compound:

EC50 | Emax | SMILES
362 nM | 262% | COc1nc(C)cc2c1C(=O)N[C@H](C(=O)NCCc1cc(C)no1)CC(=O)N(C)[C@@H](CC(C)C)C(=O)N1CCC3(CC3)C[C@@H]1C(=O)N[C@H](Cc1ccccc1)CO2 [Example 683, (7′S,11′S,17a′R,20′R)-20′-benzyl-11′-isobutyl-4′-methoxy-2′,10′-dimethyl-N-(2-(3-methylisoxazol-5-yl)ethyl)-5′,9′,12′,18′-tetraoxo-5′,6′,7′,8′,9′,10′,11′,12′,14′,15′,17′,17a′,18′,19′,20′,21′-hexadecahydrospiro[cyclopropane-1,16′-dipyrido[2,1-f:3′,4′-p][1]oxa[4,7,10,14]tetraazacycloheptadecine]-7′-carboxamide]
986 nM | 235% | COc1cc(CCNC(=O)[C@@H]2CC(=O)N(C)[C@@H](CC(C)C)C(=O)N3CCC4(CC4)C[C@H]3C(=O)N[C@H](Cc3ccccc3)COc3cc(C)nc(OC)c3C(=O)N2)on1 [Example 684, (7′S,11′S,17a′S,20′R)-20′-benzyl-11′-isobutyl-4′-methoxy-N-(2-(3-methoxyisoxazol-5-yl)ethyl)-2′,10′-dimethyl-5′,9′,12′,18′-tetraoxo-5′,6′,7′,8′,9′,10′,11′,12′,14′,15′,17′,17a′,18′,19′,20′,21′-hexadecahydrospiro[cyclopropane-1,16′-dipyrido[2,1-f:3′,4′-p][1]oxa[4,7,10,14]tetraazacycloheptadecine]-7′-carboxamide]
500 nM | 234% | [2H]C([2H])([2H])Oc1nc(C)cc2c1C(=O)N[C@H](C(=O)NCCc1cnn(C3CC3)n1)CC(=O)N(C)[C@@H](CC(C)C)C(=O)N1CCCC[C@@H]1C(=O)N[C@H](Cc1ccccc1)CO2 [Example 685, (7S,11S,17aR,20R)-20-benzyl-N-(2-(2-cyclopropyl-2H-1,2,3-triazol-4-yl)ethyl)-11-isobutyl-4-(methoxy-d3)-]
436 nM | 332% | COc1cc(CCNC(=O)[C@@H]2CC(=O)N(C)[C@@H](CC(C)C)C(=O)N(C)C3(CC3)C(=O)N[C@H](Cc3ccccc3)COc3cnc4ccccc4c3C(=O)N2)on1 [Example 686, (3′S,7′S,13′R)-13′-benzyl-7′-isobutyl-N-(2-(3-methoxyisoxazol-5-yl)ethyl)-6′,9′-dimethyl-1′,5′,8′,11′-tetraoxo-2′,3′,4′,5′,6′,7′,8′,9′,11′,12′,13′,14′-dodecahydro-1′H-spiro[cyclopropane-1,10′-[1]oxa[4,7,10,14]tetraazacycloheptadecino[17,16-c]quinoline]-3′-carboxamide]
478 nM | 401% | Cc1cc(CCNC(=O)[C@@H]2CC(=O)N(C)[C@@H](CC(C)C)C(=O)N(C)C3(CCC3)C(=O)N[C@H](Cc3ccccc3)COc3cnc4ccc(F)cc4c3C(=O)N2)on1 [Example 690, (3′S,7′S,13′R)-13′-benzyl-20′-fluoro-7′-isobutyl-6′,9′-dimethyl-N-(2-(3-methylisoxazol-5-yl)ethyl)-1′,5′,8′,11′-tetraoxo-2′,3′,4′,5′,6′,7′,8′,9′,11′,12′,13′,14′-dodecahydro-1′H-spiro[cyclobutane-1,10′-[1]oxa[4,7,10,14]tetraazacycloheptadecino[17,16-c]quinoline]-3′-carboxamide]
